The results in this text go back to US10231967B2, “Compounds and their use as BACE inhibitors” (ASTRAZENECA AB, priority 2010, dated 2019).

The structures appear in SMILES notation.

As a reminder, the IC50 is the point on the concentration scale where inhibition reaches its midpoint. Higher therefore signals a need for much substance.

One test concerns sAPPβ release in SH-SY5Y cells. Briefly: sAPPβ release assay. The test is classed as cell-based. As to conditions: Homo sapiens, SH-SY5Y, 17 h, compounds incubated 17 h, MSD detection. Here is the method:
Thaw cells and seed at a conc. of around 10000 cells/well in DMEM/F-12 with Glutamax, 10% FCS and 1% non-essential amino acids to a 384-well tissue culture treated plate, 100 μL cell susp/well. […] The cell medium was removed, followed by addition of 30 μL compound diluted in DMEM/F-12 with Glutamax, 10% FCS, 1% non-essential amino acids and 1% PeSt to a final conc. of 1% DMSO. The compounds were incubated with the cells for 17 h (overnight) at 37° C., 5% CO2. Meso Scale Discovery (MSD) plates were used for the detection of sAPPβ release. MSD sAPPβ plates were blocked in 1% BSA in Tris wash buffer (40 μL/well) for 1 h on shake at r.t. and washed 1 time in Tris wash buffer (40 μL/well). 20 μL of medium was transferred to the pre-blocked and washed MSD sAPPβ microplates, and the cell plates were further used in an ATP assay to measure cytotoxicity. The MSD plates were incubated with shaking at r.t. for 2 h and the media discarded. 10 μL detection antibody was added (1 nM) per well followed by incubation with shaking at r.t. for 2 h and then discarded. 40 μL Read Buffer was added per well and the plates were read in a SECTOR Imager.
With `CC1=NC2(N=C1N)c1cc(-c3cncc(Cl)c3)ccc1CC21CCC(F)(F)CC1` (centres unmarked) [Example 28c, 6′-(5-Chloropyridin-3-yl)-4,4-difluoro-5″-methyl-3′H-dispiro[cyclohexane-1,2′-indene-1′,2″-imidazol]-4″-amine], 109 nM corresponded to half-maximal inhibition (IC50).

With `CC#Cc1cncc(-c2ccc3c(c2)C2(N=C(C)C(N)=N2)C2(CCC(F)(F)CC2)C3)c1` (centres unmarked) [Example 28h, 4,4-Difluoro-5″-methyl-6′-[5-(prop-1-yn-1-yl)pyridin-3-yl]-3′H-dispiro[cyclohexane-1,2′-indene-1′,2″-imidazol]-4″-amine], half-maximal inhibition (IC50) was put at 18 nM.

`CC1=N[C@]2(C[C@@H]([C@@H]3CCCOC3)Oc3ccc(-c4cccc(Cl)c4)cc32)N=C1N` [Example 48 Isomer 1, (2S,4R)-6-(3-chlorophenyl)-5′-methyl-2-[(3R)-tetrahydro-2H-pyran-3-yl]-2,3-dihydrospiro[chromene-4,2′-imidazol]-4′-amine] returned an IC50 of 20 nM.

`CC1=N[C@]2(C[C@H]([C@H]3CCCOC3)Oc3ccc(-c4cccc(Cl)c4)cc32)N=C1N` [Example 48 Isomer 4, (2R,4R)-6-(3-chlorophenyl)-5′-methyl-2-[(3 S)-tetrahydro-2H-pyran-3-yl]-1′,2,3,3′-tetrahydrospiro[chromene-4,2′-imidazol]-4′-amine]: it took 689 nM to reach half-maximal inhibition (IC50). This IC50 lies about 34-fold higher than the previous one.

Turning to `CC1=N[C@]2(C[C@H]([C@@H]3CCCOC3)Oc3ccc(-c4cccc(Cl)c4)cc32)N=C1N` [Example 48 Isomer 7, (2R,4R)-6-(3-chlorophenyl)-5′-methyl-2-[(3R)-tetrahydro-2H-pyran-3-yl]-1′,2,3,3′-tetrahydrospiro[chromene-4,2′-imidazol]-4′-amine], the IC50 was 191 nM.

As to `CC1=N[C@]2(C[C@@H]([C@H]3CCCOC3)Oc3ccc(-c4cccc(Cl)c4)cc32)N=C1N` [Example 48 Isomer 8, (2S,4R)-6-(3-chlorophenyl)-5′-methyl-2-[(3S)-tetrahydro-2H-pyran-3-yl]-1′,2,3,3′-tetrahydrospiro[chromene-4,2′-imidazol]-4′-amine], it took 204 nM to reach half-maximal inhibition (IC50).

Consider `CC#Cc1cncc(-c2ccc3c(c2)C2(CCC3)N=C(C)C(N)=N2)c1` (centres unmarked) [Example 53, 5-Methyl-7′-(5-(prop-1-ynyl)pyridin-3-yl)-3′,4′-dihydro-2′H-spiro[imidazole-2,1′-naphthalen]-4-amine], for which the half-inhibitory concentration (IC50) is 21 nM.

`CC1=NC2(N=C1N)c1cc(-c3cncc(Cl)c3)ccc1CC21CCC1` (centres unmarked) [Example 55, 6′-(5-Chloropyridin-3-yl)-5″-methyl-3′H-dispiro[cyclobutane-1,2′-indene-1′,2″-imidazol]-4″-amine] showed an IC50 of 118 nM.

With `CC#Cc1cncc(-c2ccc3c(c2)C2(N=C(C)C(N)=N2)C2(CCC2)C3)c1` (centres unmarked) [Example 56, 5″-Methyl-6′-[5-(prop-1-yn-1-yl)pyridin-3-yl]-3′H-dispiro[cyclobutane-1,2′-indene-1′,2″-imidazol]-4″-amine], the IC50 is 24 nM. This IC50 is about 4.9-fold lower than that of the molecule before.

In turn, `CC1=NC2(N=C1N)c1cc(C#CC3CC3)ccc1CC21CCC1` (centres unmarked) [Example 58, 6′-(Cyclopropylethynyl)-5″-methyl-3′H-dispiro[cyclobutane-1,2′-indene-1′,2″-imidazol]-4″-amine] returned an IC50 of 219 nM.

Molecule `CO[C@H]1CC[C@]2(CC1)Cc1ccc(-c3cnc(C)c(Cl)c3)cc1C21N=C(C)C(N)=N1` (some centres unmarked) [Example 60, (1r,4r)-6′-(5-Chloro-6-methylpyridin-3-yl)-4-methoxy-5″-methyl-3′H-dispiro[cyclohexane-1,2′-indene-1′,2″-imidazol]-4″-amine] registered an IC50 of 8.7 nM.

In the case of `CO[C@H]1CC[C@]2(CC1)Cc1ccc(-c3cnc(C)c(Cl)c3)cc1[C@@]21N=C(C)C(N)=N1` [Example 61, (1r,1′R,4R)-6′-(5-Chloro-6-methylpyridin-3-yl)-4-methoxy-5″-methyl-3′H-dispiro[cyclohexane-1,2′-indene-1′,2″-imidazol]-4″-amine], the IC50 worked out at 3.1 nM.

For the molecule `CO[C@H]1CC[C@]2(CC1)Cc1ccc(-c3cc(Cl)cnc3C)cc1C21N=C(C)C(N)=N1` (some centres unmarked) [Example 62, (1r,4r)-6′-(5-Chloro-2-methylpyridin-3-yl)-4-methoxy-5″-methyl-3′H-dispiro[cyclohexane-1,2′-indene-1′,2″-imidazol]-4″-amine], inhibition was half-maximal at 8.6 nM (IC50). This IC50 lies about 2.8-fold higher than the previous one.

Turning to `CCC1=NC2(N=C1N)c1cc(-c3cncc(Cl)c3)ccc1C[C@]21CC[C@@H](OC)CC1` (some centres unmarked) [Example 65, (1r,4r)-6′-(5-Chloropyridin-3-yl)-5-ethyl-4-methoxy-3′H-dispiro[cyclohexane-1,2′-indene-1′,2″-imidazol]-4″-amine], the IC50 was 3.4 nM.

`CC#Cc1cncc(-c2ccc3c(c2)C2(N=C(N)C(CC)=N2)[C@]2(CC[C@H](OC)CC2)C3)c1` (some centres unmarked) [Example 67, (1r,4r)-5″-Ethyl-4-methoxy-6′-[5-(prop-1-yn-1-yl)pyridin-3-yl]-3′H-dispiro[cyclohexane-1,2′-indene-1′,2″-imidazol]-4″-amine] had an IC50 of 0.81 nM.

Molecule `CCC1=NC2(N=C1N)c1cc(-c3cccc(C#N)c3)ccc1C[C@]21CC[C@@H](OC)CC1` (some centres unmarked) [Example 70, 3-[(1r,4r)-4″-amino-5″-ethyl-4-methoxy-3′H-dispiro[cyclohexane-1,2′-indene-1′,2″-imidazol]-6′-yl]benzonitrile] returned an IC50 of 13 nM.

With `CO[C@H]1CC[C@]2(CC1)Cc1ccc(-c3cc(C)cc(C#N)c3)cc1C21N=C(C)C(N)=N1` (some centres unmarked) [Example 74, 3-[(1r,4r)-4″-Amino-4-methoxy-5″-methyl-3′H-dispiro[cyclohexane-1,2′-indene-1′,2″-imidazol]-6′-yl]-5-methylbenzonitrile], the IC50 amounted to 2.1 nM.

The molecule `CO[C@H]1CC[C@]2(CC1)Cc1ccc(C#N)cc1C21N=C(C)C(N)=N1` (some centres unmarked) [Example 79, (1r,4r)-4″-Amino-4-methoxy-5″-methyl-3′H-dispiro[cyclohexane-1,2′-indene-1′,2″-imidazole]-6′-carbonitrile] displayed an IC50 of 171 nM. Against the preceding molecule, the IC50 is about 81-fold higher.

For `COCc1cccc(-c2ccc3c(c2)C2(N=C(C)C(N)=N2)[C@]2(CC[C@H](OC)CC2)C3)c1` (some centres unmarked) [Example 80, (1r,4r)-4-Methoxy-6′-[3-(methoxymethyl)phenyl]-5″-methyl-3′H-dispiro[cyclohexane-1,2′-indene-1′,2″-imidazol]-4″-amine], half-maximal inhibition (IC50) required 13 nM.

Take `COCc1cc(F)cc(-c2ccc3c(c2)C2(N=C(C)C(N)=N2)[C@]2(CC[C@H](OC)CC2)C3)c1` (some centres unmarked) [Example 81, (1r,4r)-6′-[3-Fluoro-5-(methoxymethyl)phenyl]-4-methoxy-5″-methyl-3′H-dispiro[cyclohexane-1,2′-indene-1′,2″-imidazol]-4″-amine]: the 50% inhibitory concentration (IC50) worked out at 20 nM.

The same test, now with this note: Homo sapiens, compounds incubated 17 h, MSD detection.
`CC1=NC2(N=C1N)c1cc(NC(=O)c3ccc(Cl)cn3)ccc1CC21CCC(F)(F)CC1` (centres unmarked) [Example 28d, N-(4″-Amino-4,4-difluoro-5″-methyl-3′H-dispiro[cyclohexane-1,2′-indene-1′,2″-imidazol]-6′-yl)-5-chloropyridine-2-carboxamide] yielded an IC50 of 89 nM.

`COC1CCC2(CC1)Oc1ccc(Br)cc1C21N=C(C)C(N)=N1` (centres unmarked) [Example 29, 5′-bromo-4-methoxy-5″-methyldispiro[cyclohexane-1,2′-[1]benzofuran-3′,2″-imidazol]-4″-amine] returned an IC50 of 848 nM. This IC50 lies about 9.5-fold higher than the previous one.

For `COC1CCC2(CC1)Oc1ccc(-c3cncc(Cl)c3)cc1C21N=C(C)C(N)=N1` (centres unmarked) [Example 30d, 5′-(5-Chloropyridin-3-yl)-4-methoxy-5′-methyldispiro[cyclohexane-1,2′-[1]benzofuran-3′,2″-imidazol]-4″-amine], the IC50 was found to be 97 nM.

Molecule `CC1=NC2(CCCc3ccc(-c4cncc(Cl)c4)cc32)N=C1N` (centres unmarked) [Example 52, 7′-(5-Chloropyridin-3-yl)-5-methyl-3′,4′-dihydro-2′H-spiro[imidazole-2,1′-naphthalen]-4-amine] displayed an IC50 of 91 nM. The IC50 values of the last two molecules are within 1.5-fold of each other.

`CC#Cc1cncc(-c2ccc3c(c2)C2(N=C(C)C(N)=N2)[C@]2(CC[C@H](OC)CC2)C3)c1C` (some centres unmarked) [Example 63, (1r,4r)-4-Methoxy-5″-methyl-6′-[4-methyl-5-(prop-1-yn-1-yl)pyridin-3-yl]-3′H-dispiro[cyclohexane-1,2′-indene-1′,2″-imidazol]-4″-amine] registered an IC50 of 29 nM.

`CCC1=NC2(N=C1N)c1cc(Br)ccc1C[C@]21CC[C@@H](OC)CC1` (some centres unmarked) [Example 64, (1r,4r)-6′-Bromo-5″-ethyl-4-methoxy-3′H-dispiro[cyclohexane-1,2′-indene-1′,2″-imidazol]-4″-amine] showed an IC50 of 125 nM.

Regarding `CCC1=NC2(N=C1N)c1cc(-c3cncc(C#N)c3)ccc1C[C@]21CC[C@@H](OC)CC1` (some centres unmarked) [Example 69, 5-[(1r,4r)-4″-Amino-5″-ethyl-4-methoxy-3′H-dispiro[cyclohexane-1,2′-indene-1′,2″-imidazol]-6′-yl]pyridine-3-carbonitrile], the IC50 amounted to 10 nM.

In turn, `CC#Cc1cncc(-c2ccc3c(c2)[C@@]2(N=C(C)C(N)=N2)[C@]2(CC[C@H](O)CC2)C3)c1` [Example 73, (1r,1′R,4R)-4″-Amino-5″-methyl-6′-[5-(prop-1-yn-1-yl)pyridin-3-yl]-3′H-dispiro[cyclohexane-1,2′-indene-1′,2″-imidazol]-4-ol] yielded an IC50 of 1 nM.

With `CC1=NC2(N=C1N)c1cc(-c3cc(Cl)cc(C#N)c3)ccc1CC21CC1` (centres unmarked) [Example 78, 3-(4″-Amino-5″-methyl-3′H-dispiro[cyclopropane-1,2′-indene-1′,2″-imidazol]-6′-yl)-5-chlorobenzonitrile], the IC50 is 56 nM.
